Positions count from the first letter of the chain named. Several values for one entry are separate records, joined by “and”; a condition that tells them apart may be missing. Identical values can stand only once.
Assays:
[1] = tested on: E240V mutant TP receptor; design: method as in PMID 20383734; details: E240V vs WT; cited from earlier work
[2] = target: T1, E129V mutant human TP receptor (Homo sapiens, UniProt P21731, E129V); assay: BRET2 measurement of Gq protein activation, E129V mutant; type: cell-based; details: HEK293 cells
T1 construct: expressed in transfected cells; host or cells: HEK293
T1 sequence (P21731 1-343 E129V): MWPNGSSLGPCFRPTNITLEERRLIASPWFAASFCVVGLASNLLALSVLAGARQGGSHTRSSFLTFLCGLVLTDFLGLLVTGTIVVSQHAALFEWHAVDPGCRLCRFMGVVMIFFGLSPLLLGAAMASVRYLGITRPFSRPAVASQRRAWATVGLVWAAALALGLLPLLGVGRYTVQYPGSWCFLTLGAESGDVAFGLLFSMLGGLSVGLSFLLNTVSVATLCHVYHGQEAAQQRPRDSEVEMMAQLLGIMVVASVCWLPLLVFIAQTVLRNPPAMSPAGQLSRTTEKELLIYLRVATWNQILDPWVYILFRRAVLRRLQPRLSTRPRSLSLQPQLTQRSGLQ
Method: (§1) All average results are presented as mean±S.E. When indicated, ANOVA followed by post-hoc test for multiple comparisons was performed. Data from radioligand binding were evaluated by a nonlinear, least-squares curve-fitting procedure using GraphPad Prism version 4, implemented with the n-ligand m-binding site model, as described in the LIGAND computer program. Concentration-response curves were evaluated using Prism 4, which use the four parameters logistic model as described in the ALLFIT program. Parameter errors are all expressed in percentage coefficient of variation (%CV) and calculated by simultaneous analysis of at least two different independent experiments performed in duplicate or triplicate. Parameter comparison has been performed on the base of the F test for extra sum of square principle. All curves shown are computer generated.

[3] = target: T2, WT human TP receptor (Homo sapiens, UniProt P21731); assay: [3H]SQ29,548 radioligand binding (mixed-type and heterologous competition), WT receptor; details: HEK293 cells, competition vs 1 nM [3H]SQ29,548, 25°C 30 min, value ±%CV
T2 construct: expressed in transfected cells; host or cells: HEK293
T2 sequence (P21731 1-343): T1 sequence (P21731 1-343 E129V) with V129E
Method: (§2) Receptor expression and functional activity were monitored 48 hours after transfection. […] Heterologous competition studies involved concentrations of the indicated unlabeled ligands extending from 0.1 nM to 30 µM. After 30 min incubation at 25 °C, the reaction was stopped by aspiration of the medium, cells were washed with ice-cold PBS containing 0.2% (w/v) BSA and lysed in 0.5 N NaOH. Radioactivity was measured by liquid scintillation counting. Binding data were analyzed as described in Data and Statistical Analysis. Quantification of the total labeled inositol phosphates (IP) accumulation was performed using a conventional gravity flow column chromatography, as described previously, [19]. Briefly, the day before the assay, cells were labeled with 0,5 µCi of [myo-2-^3H]inositol (17 Ci/mmol) for 18–20 hours in serum-free, inositol-free DMEM containing 20 mM HEPES buffer, pH 7.4, and 0.5% (w/v) Albumax I. The day of the assay, media was replaced with serum-free, inositol-free DMEM containing 25 mM LiCl and cells stimulated for 30 min with the indicated agonists. After removal of the medium, cells were lysed with 10 mM formic acid and lysates were applied onto an anion exchange AG 1X-8 column, formate form, 200–400 mesh. The total IP fraction was then eluted with 2 M ammonium formate/formic acid buffer at pH 5 and radioactivity determined by liquid scintillation counting. Rescue experiments were performed essentially as above, except for a 18 hours incubation step with 1 µΜof […] followed by its removal by washing three times with ice-cold PBS containing 1 mM MgCl2 and 0.1 mM CaCl2 before starting the experiment.
as §1
(§3) Thus, transfection conditions were adjusted to secure equivalent levels of receptor expression for WT and mutants as previously described, [17], [19]. […] All the experiments were conducted within this range of receptor expression, if not specified differently.

[4] = target: T1, E129V mutant human TP receptor; assay: [3H]SQ29,548 radioligand binding (mixed-type and heterologous competition), E129V mutant; details: HEK293 cells
Method: as §2, §1, §3

[5] = target: T1, E129V mutant human TP receptor; assay: Total inositol phosphate (IP) accumulation, E129V mutant; type: cell-based; details: HEK293 cells
Method: as §2, §1

[6] = target: T3, double mutant E129V/E240V of human TP receptor (Homo sapiens, UniProt P21731, E129V/E240V); assay: Total inositol phosphate (IP) accumulation, E129V/E240V double mutant, rescue with SQ29,548; type: cell-based; details: HEK293 cells, E129V/E240V double mutant after rescue with 1 µM SQ29,548 for 18 h; ±33%CV
T3 construct: expressed in transfected cells; host or cells: HEK293
T3 sequence (P21731 1-343 E129V/E240V): T1 sequence (P21731 1-343 E129V) with E240V
Method: Receptor expression and functional activity were monitored 48 hours after transfection. […] Heterologous competition studies involved concentrations of the indicated unlabeled ligands extending from 0.1 nM to 30 µM. After 30 min incubation at 25 °C, the reaction was stopped by aspiration of the medium, cells were washed with ice-cold PBS containing 0.2% (w/v) BSA and lysed in 0.5 N NaOH. Radioactivity was measured by liquid scintillation counting. Binding data were analyzed as described in Data and Statistical Analysis. Quantification of the total labeled inositol phosphates (IP) accumulation was performed using a conventional gravity flow column chromatography, as described previously, [19]. […] The total IP fraction was then eluted with 2 M ammonium formate/formic acid buffer at pH 5 and radioactivity determined by liquid scintillation counting. […]
All average results are presented as mean±S.E. When indicated, ANOVA followed by post-hoc test for multiple comparisons was performed. Data from radioligand binding were evaluated by a nonlinear, least-squares curve-fitting procedure using GraphPad Prism version 4, implemented with the n-ligand m-binding site model, as described in the LIGAND computer program. Concentration-response curves were evaluated using Prism 4, which use the four parameters logistic model as described in the ALLFIT program. […]

[7] = E129V, 30 min stimulation, value ±%CV

EC50 ([2]; E129V, Gαq-Rluc8/GFP10-Gγ2/Gβ1, 2 min ligand, value ±%CV): 4.53 nM | Activity ratio (EC50 WT over EC50 E129V), BRET ([2]; WT vs E129V): 76 | Ki [3]: 170 ± 13 nM | Ki ([4]; E129V, competition vs 1 nM [3H]SQ29,548, 25°C 30 min, value ±%CV): 16.3 ± 18 nM | Affinity ratio (Ki WT over Ki E129V) ([4]; WT vs E129V): 10 and 10.4 | EC50 [5, 7]: 4.47 nM | Emax, total IP [5, 7]: 18115±5 dpm/wel | Activity ratio (EC50 WT over EC50 E129V), total IP ([5]; WT vs E129V): 22.1 | EC50 [6]: 1.66 nM
Compound: CCCCC[C@H](O)/C=C/[C@@H]1[C@@H](C/C=C\CCCC(=O)O)[C@H]2CO[C@@H]1C2 (relative stereo) [U46619, [1R-[1α,4α,5β(Z),6α(1E,3S*)]]-7-[6-(3-hydroxy-1-octenyl)-2-oxabicyclo[2.2.1]hept-5-yl]-5-heptenoic acid]
Fold lower EC50 than WT, total IP formation [1]: 10 fold

Reference: article PMC3610872, “Full and Partial Agonists of Thromboxane Prostanoid Receptor Unveil Fine Tuning of Receptor Superactive Conformation and G Protein Activation” (PLoS ONE, 2013)
